Consider 4 compounds from patent publication US8969563B2, “Calcium salt of pyrroloquinoline quinone” (Mitsubishi Gas Chemical Company, Inc., priority 2010, dated 2015).

Counter-ions that a name gives are not always drawn.

The test system of data set [1] is Chinese hamster ovary cells (CHO-DHFR−). Briefly: Absorption test using cells (cell growth promotion / retardation). The format is cell-based. Particulars: 2-day culture; for Optimum cell growth concentration: Cell Counting Kit 8, absorbance 450 nm, concentration at which cell count is largest (about 5%) compared to without PQQ, tested 150 to 2.3 μg/mL; for Cell growth retarding concentration: concentration at which total cell count is decreased by about 10% compared to without PQQ. The protocol:
PQQ has effects of promoting cell growth and of retarding cell growth at a higher concentration on cultured animal cells. Based on these effects, change in the cell absorption was tested.
Chinese hamster ovary cells (CHO-DHFR^−, Dainippon Sumitomo Pharma Co., Ltd.) were cultured in a medium (alpha-MEM+10% fetal bovine serum) containing 5% CO2 at 37° C. The cultured cells were added together with 100 μL of the medium to each well of the 96-well plate (IWAKI) so that the cell density per well is 6,000 cells/well, and culture was performed overnight. The culture solution was removed, and the medium having a predetermined test concentration was added thereto. After a 2-day culture, the medium was replaced, a Cell Counting Kit 8 (from DOJINDO LABORATORIES) was used to stain the cells for one hour, and measurement of absorbance was performed at 450 nm. The absorbance in this case is proportional to the cell number.
As the test samples, the crystalline calcium salts of PQQ in Examples 1 and 2 above, and the disodium salt of PQQ or the raw material in Test Example 1, were used for testing after dilution by the medium. The test was duplicated for each sample, and the results were averaged.
The concentration at which the cell count due to PQQ is largest (about 5%) compared to the case without PQQ is recorded as the optimum cell growth concentration. In addition, the concentration at which the total cell count is decreased by about 10% compared to the case without PQQ is recorded as the cell-growth retarding concentration.
For orientation: Formazan colour is commonly taken as a measure of viable cells.

Data set [2] can be described thus: Elution test: amount of PQQ dissolved from the calcium salt with or without a chelating substance. The format is physicochemical. Particulars: for Dissolved amount: added to water (1 mL), four hours at room temperature, centrifugation, absorption at 450 nm. Here is the method: Changes in the solubility of the insoluble salt due to the addition of a chelating substance were measured.

Data set [3] can be described thus: Water solubility of the recovered solid (description). The format is physicochemical. The following applies: dried solid.
Data set [4] is described as follows: Release of PQQ from the white calcium salt in solvents. The format is physicochemical. Particulars: for Appearance: 40° C., five hours. Here is the method: After keeping each resultant mixture at 40° C. for five hours, centrifugation was performed to remove solids, and PQQ was analyzed on high performance liquid chromatography.

Turning to `O=C([O-])c1cc(C(=O)[O-])c2c(n1)C(=O)C(=O)c1cc(C(=O)O)[nH]c1-2.[Na+].[Na+]` [Comparative Example 1, disodium salt of PQQ, reference compound], in data set [1], the “Optimum cell growth concentration” value was determined as 75 µg/mL and the “Cell growth retarding concentration” value came out at 150 µg/mL.
With `O=C(O)c1cc(C(=O)O)c2c(n1)C(=O)C(=O)c1cc(C(=O)O)[nH]c1-2` [Example 1, crystalline calcium salt of PQQ], in data set [1], the “Optimum cell growth concentration” value was 2.3 µg/mL and the “Cell growth retarding concentration” value was determined as 75 µg/mL. Also, in data set [2], the Dissolved amount amounted to 1%. The “solubility of the calcium salt alone” value in data set [2] (water, no chelating substance) is reported as “very low”. Also, in data set [3], the water solubility result is recorded as “poorly water-soluble”.
“crystalline calcium salt of PQQ [Example 2]”: in data set [1], the “Optimum cell growth concentration” value worked out at 4.7 µg/mL and the “Cell growth retarding concentration” value amounted to 75 µg/mL. Also, in data set [2], the Dissolved amount amounted to 3%.
Take white calcium salt of PQQ [Example 15]: the Appearance entry in data set [4] (Acetic acid 30 mM + Ammonium acetate 70 mM (pH 5)) is reported as “White solid”; in data set [4] (Dimethyl sulfoxide), “Red solution”; in data set [4] (Na2HPO4 23.5 g/L NaH2PO4 5 g/L) it was “Red solution”; in data set [4] (PBS (GIBCO, pH 7.4)) it was “Red solid”; in data set [4] (Simulated gastric fluid (pH 1.7)), “Red solid”. The “release of calcium ions” value is on record as “easily released” in data set [4] (neutral solution of phosphoric acid) and “difficult to be released” in data set [4] (simulated gastric fluid).
